Test results as given in US20110100079A1, “METHOD FOR IMPARTING STRESS TOLERANCE TO PLANT” (priority 2007, published 2011).

How the values were obtained:
Type in all cases: in vivo
“Momotaro” tomato [1] = test: Example 6 salt stress test (tomato), hydroponic culture; details: 23° C., leaf, 100 ppm, 2 weeks; for Fresh weight, relative value (untreated plot = 100), Test 5 / Fresh weight, relative value (untreated plot = 100), Test 8 / Fresh weight, relative value (untreated plot = 100), Test 6 / Fresh weight, relative value (untreated plot = 100), Test 7: hydroponic culture; for Fresh weight, relative value (untreated plot = 100), Test 5: EC 2.7 mS/cm; for Fresh weight, relative value (untreated plot = 100), Test 5 / Fresh weight, relative value (untreated plot = 100), Test 6 / Fresh weight, relative value (untreated plot = 100), Test 7 / Fresh weight, relative value (untreated plot = 100), Comparison 2: two-leaf stage; for Fresh weight, relative value (untreated plot = 100), Test 8 / Fresh weight, relative value (untreated plot = 100), Test 6: EC 3.9 mS/cm; for Fresh weight, relative value (untreated plot = 100), Test 8: five-leaf stage; for Fresh weight, relative value (untreated plot = 100), Test 7: EC 4.8 mS/cm; for Fresh weight, relative value (untreated plot = 100), Comparison 2: stress-free: hydroponic culture, EC 1.3 mS/cm
Experimental: (§1) (a) Comparative example conditions (stress-free optimum growth conditions) Cultivation temperature: 23° C., EC: 1.3 mS/cm (Otsuka ½A formulation) (b) Example conditions (salt stress conditions) Cultivation temperature: 23° C., EC: 2.7, 3.9, 4.8 mS/cm (cultivation with Kureha gardening soil) (2) Illuminance: 5000 Lux (fluorescent light), light/dark cycle: 16 hours/8 hours (3) Employed soil: Kureha gardening soil manufactured by Kureha Corporation (fertilizer components: N:P:K=0.4:1.9:0.6 g/kg soil) (4) Employed solution culture medium: Otsuka ½A formulation: a mixed solution of Otsuka House No. 1 (N:P:K=10:8:27) 7.5 g/10 L and Otsuka House No. 2 (N:P:K:Ca=10:0:0:23) 5 g/10 L, total nitrogen: 130 ppm, phosphoric acid: 60 ppm, potassium: 203 ppm) (5) Cultivation period: 2 weeks (6) Plant preparation: A 50-cell tray was filled with Kureha gardening soil manufactured by Kureha Corporation (fertilizer components: N:P:K=0.4:1.9:0.6 g/kg soil), and seeds of a “Momotaro” tomato or tubers of a “Danshaku” potato were sowed, thinly covered with Kureha gardening soil, and sufficiently watered to allow the seeds or the tubers to sprout. When the leaves in the 2-leaf stage or the 5-leaf stage fully unfolded, the soil on the tomato roots or the potato roots was carefully washed away with running water, and a test was performed. (7) Test chemicals: POE (20) sorbitan monolauric acid ester: Reodol TW-L120 (Kao Corporation) POE (20) sorbitan monopalmitic acid ester: Reodol TW-P120 (Kao Corporation) POE (20) sorbitan monostearic acid ester: Reodol TW-S120 (Kao Corporation) POE (20) sorbitan monooleic acid ester: Reodol TW-O120 (Kao Corporation) Sorbitan monooleic acid ester: Emasol 0-10(F) (Kao Corporation) POE (6) sorbitan monooleic acid ester: Reodol TW-O106 (Kao Corporation) Alkyl (number of carbon atoms: 10) polyglucoside: AG-10LK (Kao Corporation) Alkyl (number of carbon atoms: 12 to 14) polyglucoside: AG-124 (Kao Corporation) Sucrose fatty acid ester (number of carbon atoms: C18, HLB: 5): S-570 (Mitsubishi-Kagaku Foods Corporation) Sucrose fatty acid ester (number of carbon atoms: C18, HLB: 9): S-970 (Mitsubishi-Kagaku Foods Corporation) Sucrose fatty acid ester (number of carbon atoms: C18, HLB: 11): S-1170 (Mitsubishi-Kagaku Foods Corporation) Sucrose fatty acid ester (number of carbon atoms: C18, HLB: 15): 5-1570 (Mitsubishi-Kagaku Foods Corporation) Sucrose fatty acid ester (number of carbon atoms: C16, HLB: 15): P-1570 (Mitsubishi-Kagaku Foods Corporation) Sucrose fatty acid ester (number of carbon atoms: C18:1, HLB: 15): O-1570 (Mitsubishi-Kagaku Foods Corporation) (8) Amount of treatment solution applied: 10 ml/specimen for leaf spraying, 250 ml/specimen for hydroponic culture (treatment of underground portion) (9) 50 ml/specimen for soil culture (treatment of underground portion)
The environmental conditions in a climatic chamber were controlled so as to have a temperature of 23° C., an illuminance by a fluorescent light of 5000 Lux, and a daily light-dark cycle of a 16-hour light period and an 8-hour dark period. Tomatoes as prepared above were planted in 250 ml polyethylene bottles each filled with a solution culture medium having a different EC value. Different EC values were achieved by taking a ½ Otsuka A formulation having an EC value of 1.3 as a standard and suitably increasing the fertilizer concentration through proportional counting. A treatment solution containing a compound of Table 1 in a specific concentration (the remainder was water) was prepared and sprayed onto the leaves or applied to the underground portion. In each test plot, 10 specimens were prepared for replication, and the average of the fresh weight of each specimen 2 weeks after the beginning of the test was calculated and expressed as a relative value where “100” indicates a result identical to that of the untreated plot of a given EC condition. […]

“Momotaro” tomato [2] = test: Example 6 salt stress test (tomato), soil culture; details: 23° C., leaf, 100 ppm, 2 weeks; for Fresh weight, relative value (untreated plot = 100), Test 1 / Fresh weight, relative value (untreated plot = 100), Test 4 / Fresh weight, relative value (untreated plot = 100), Test 2 / Fresh weight, relative value (untreated plot = 100), Test 3: soil culture; for Fresh weight, relative value (untreated plot = 100), Test 1: EC 1.3 mS/cm; for Fresh weight, relative value (untreated plot = 100), Test 1 / Fresh weight, relative value (untreated plot = 100), Test 2 / Fresh weight, relative value (untreated plot = 100), Test 3 / Fresh weight, relative value (untreated plot = 100), Comparison 1: pF 1.7, two-leaf stage; for Fresh weight, relative value (untreated plot = 100), Test 4 / Fresh weight, relative value (untreated plot = 100), Test 2: EC 2 mS/cm; for Fresh weight, relative value (untreated plot = 100), Test 4: pF 1.7, five-leaf stage; for Fresh weight, relative value (untreated plot = 100), Test 3: EC 3 mS/cm; for Fresh weight, relative value (untreated plot = 100), Comparison 1: stress-free: soil culture, EC 1 mS/cm
Experimental: (1) A. soil culture (a) Comparative example conditions (stress-free optimum growth conditions) Cultivation temperature: 23° C., EC: 1.0 mS/cm (cultivation with Kureha gardening soil), pF value: 1.7 (capillaries in a saturated state) (b) Example conditions (salt stress conditions) Cultivation temperature: 23° C., EC: 1.3, 2.0, 3.0 mS/cm (cultivation with Kureha gardening soil), pF value: 1.7 (capillaries in a saturated state)
as §1
The environmental conditions in a climatic chamber were controlled so as to have a temperature of 23° C., an illuminance by a fluorescent light of 5000 Lux, and a daily light-dark cycle of a 16-hour light period and an 8-hour dark period. Tomatoes as prepared above were transplanted in size-3 (9 cm) pots. During the test period, the EC value was controlled by adding a suitable amount of a 10% NaCl solution once a day so as to attain a specific salt stress value. A treatment solution containing a compound of Table 1 in a specific concentration (the remainder was water) was prepared and sprayed onto the leaves or applied to the underground portions. […]

tomato = test: Example 7 drying stress test (tomato), soil culture; details: 23° C., leaf, 100 ppm, 2 weeks; for Fresh weight, relative value (untreated plot = 100), Comparison 1: stress-free: tomato soil culture, EC 1, pF 1.7, two-leaf stage; for Fresh weight, relative value (untreated plot = 100), Test 1 / Fresh weight, relative value (untreated plot = 100), Test 4 / Fresh weight, relative value (untreated plot = 100), Test 2 / Fresh weight, relative value (untreated plot = 100), Test 3: tomato soil culture; for Fresh weight, relative value (untreated plot = 100), Test 1: EC 1, pF 2.8, two-leaf stage; for Fresh weight, relative value (untreated plot = 100), Test 4: EC 1, pF 3.5, five-leaf stage; for Fresh weight, relative value (untreated plot = 100), Test 2: EC 1, pF 3.5, two-leaf stage; for Fresh weight, relative value (untreated plot = 100), Test 3: EC 1, pF 4.1, two-leaf stage
Experimental: The environmental conditions in a climatic chamber were controlled so as to have a temperature of 23° C., an illuminance by a fluorescent light of 5000 Lux, and a daily light-dark cycle of a 16-hour light period and an 8-hour dark period. Tomatoes as prepared above were transplanted in size-3 (9 cm) pots. During the test period, the pF value was controlled by adding a suitable amount of tap water once a day so as to attain a specific drying stress value. A treatment solution containing a compound of Table 1 in a specific concentration (the remainder was water) was prepared and sprayed onto the leaves or applied to the underground portions. […] A comparative example was constructed to reflect the drying stress-free optimum cultivation conditions to investigate the plant energizing ability. […] Moreover, when the products of the present invention and the comparative products were compared, the stress tolerance imparting ability of the products of the present invention was higher in respective drying stress conditions.

Row | Compound | Fresh weight, relative value (untreated plot = 100), Test 5 (“Momotaro” tomato [1]) | Fresh weight, relative value (untreated plot = 100), Test 8 (“Momotaro” tomato [1]) | Fresh weight, relative value (untreated plot = 100), Test 6 (“Momotaro” tomato [1]) | Fresh weight, relative value (untreated plot = 100), Test 7 (“Momotaro” tomato [1]) | Fresh weight, relative value (untreated plot = 100), Comparison 2 (“Momotaro” tomato [1]) | Fresh weight, relative value (untreated plot = 100), Test 1 (“Momotaro” tomato [2]) | Fresh weight, relative value (untreated plot = 100), Test 4 (“Momotaro” tomato [2]) | Fresh weight, relative value (untreated plot = 100), Test 2 (“Momotaro” tomato [2]) | Fresh weight, relative value (untreated plot = 100), Test 3 (“Momotaro” tomato [2]) | Fresh weight, relative value (untreated plot = 100), Comparison 1 (“Momotaro” tomato [2]) | Fresh weight, relative value (untreated plot = 100), Comparison 1 (tomato) | Fresh weight, relative value (untreated plot = 100), Test 1 (tomato) | Fresh weight, relative value (untreated plot = 100), Test 4 (tomato) | Fresh weight, relative value (untreated plot = 100), Test 2 (tomato) | Fresh weight, relative value (untreated plot = 100), Test 3 (tomato)
1 | POE (20) sorbitan monolauric acid ester [Product of present invention 12] | 136 | 147 | 160 | 135 | 101 | 131 | 146 | 155 | 133 | 101 | 101 | 130 | 148 | 162 | 135
2 | Sucrose fatty acid ester (C18, HLB = 15) [Product of present invention 20] | 121 | 133 | 138 | 125 | 103 | 120 | 129 | 134 | 119 |  | 103 | 119 | 136 | 139 | 124
3 | C[N+](C)(C)CC(=O)[O-] [Comparative product 3, Glycine betaine, reference compound] | 103 | 101 | 103 | 102 | 102 | 103 | 101 | 103 | 103 | 102 | 102 | 102 | 101 | 103 | 103
